{"source": "patent US20120190752A1", "about": "“EXO-S-MECAMYLAMINE METHOD, USE, AND COMPOUND FOR TREATMENT” (Targacept Inc., priority 2009, published 2012)", "system": "subjects with major depressive disorder (MDD) who were inadequate responders to citalopram", "assay": "CGI-SI (Clinical Global Impression-Severity of Illness), Phase 2b add-on trial", "format": "in vivo, human", "from_the_text": "The Clinical Global Impression rating scales are commonly used measures of symptom severity, treatment response and the efficacy of treatments in treatment studies of patients with mental disorders (Guy, W., 1976). The Clinical Global Impression—Severity scale (CGI-S) is a 7-point scale that requires the clinician to rate the severity of the patient's illness at the time of assessment, relative to the clinician's past experience with patients who have the same diagnosis. Considering total clinical experience, a patient is assessed on severity of mental illness at the time of rating. In more detail, a multi-center double-blind, randomized, placebo-controlled, parallel group, flexible dose titration study of TC-5214 as adjunctive therapy in subjects with major depressive disorder (MDD) who were inadequate responders to citalopram was conducted in centers in the US and India. The study consisted of a screening period, baseline/washout period, open-label phase, double-blind phase, and a follow-up visit. Subject participation in the study could continue for up to 16 weeks of treatment. Following a washout period of up to 28 days for other antidepressants, subjects with MDD and a MADRS total score >/=28 and a Clinical Global Impression-Severity (CGI-S) score >/=4 were enrolled on Day 1 into an open-label citalopram-only phase of the study. This phase lasted 8 weeks, with citalopram (CIT) dose increased from a once-daily dose of 20 mg (Day 1 through Week 4) to 40 mg (Week 4 through Week 8). A total of 579 subjects entered the open-label citalopram phase. At Week 8, subjects who tolerated 40 mg CIT, but whose MADRS score was reduced <50% from baseline and no lower than 17, and CGI-S≧4, were considered inadequate responders. These subjects (n=270) were randomized in a double-blind fashion to receive either placebo or TC-5214-23 as add-on therapy to continued CIT. The double-blind phase of the study also lasted 8 weeks (Week 8 to Week 16). Study drug, TC-5214-23 or placebo, was started at 2 mg daily (1 mg twice per day [BID] dosing), added on to continuing CIT (40 mg PO qd). After 2 weeks of treatment, the dose of TC-5214 could be increased to 4 mg (2 mg BID) or continued unchanged, with up-titration based upon good tolerability and inadequate therapeutic response. After a further 2 weeks, the dose of TC-5214 could be increased again to 8 mg (4 mg BID) if judged appropriate by the investigator, based upon good tolerability and inadequate therapeutic response. At any time during the double-blind phase of the study, placebo or TC-5214-23 could be reduced to the previous dose level following the emergence of unacceptable adverse events (AEs). […] At this follow-up, any signs or symptoms of relapse were evaluated. If a subject was prematurely discontinued from the study between Week 8 and Week 16 for any reason, the investigator was to make every effort to perform all evaluations as per protocol, assuming the subject had reached the end of the double-blind add-on treatment phase. These evaluations were to be made as soon as possible and within 2 weeks of discontinuation. […] There was no meaningful difference in results as a function of age, gender, site, or smoking status. With regard to efficacy endpoints, the following tables present efficacy used in the ITT (Intent-to-Treat) and PP (Per Protocol) populations unless otherwise specific. The primary inference was based upon Week 16 visit using the ITT population. Change from baseline was obtained by subtracting the baseline values from the individual on-treatment values. Change from Week 16 was obtained by subtracting the Week 16 values from the individual follow-up visit (Week 18/19) values. If either the baseline or Week 16 or on-treatment or follow-up value was missing, the change from baseline or Week 16 value was also set to missing. […]", "key": {"[1]": {"details": "ITT, Double Blind Week 18 LOCF (Follow-up), change from Week 16"}, "[2]": {"details": "PP, Double Blind Week 16 LOCF (change from Week 8)"}, "[3]": {"details": "PP, Double Blind Week 18 LOCF (Follow-up), change from Week 16"}}}
{"smiles": "CNC1(C)C2CCC(C2)C1(C)C", "note": "(stereo in doubt) [TC-5214, (S)—N,2,3,3-tetramethylnorbornan-2-amine]", "values": [{"measurement": "CGI-SI score change from baseline compared with placebo", "setting": "ITT and PP populations, result in words", "value": "statistically significant decreases (improvements)"}, {"measurement": "CGI-SI Mean Difference between TC-5214 and Placebo", "setting": "ITT, Double Blind Week 16 LOCF (change from Week 8)", "value": 0.87}, {"measurement": "CGI-SI Adjusted Mean change", "setting": "[1]", "value": "−0.05"}, {"measurement": "CGI-SI Mean Difference between TC-5214 and Placebo", "setting": "[1]", "value": 0.01}, {"measurement": "CGI-SI Difference vs Placebo + CIT", "setting": "ITT, Week 8 to Week 16 LOCF", "value": "−0.87"}, {"measurement": "CGI-SI Adj. Mean change", "setting": "ITT, change from Week 8 (double-blind baseline) to Week 16 LOCF, add-on to citalopram", "value": "−1.79"}, {"measurement": "CGI-SI Adjusted Mean change", "setting": "[2]", "value": "−2.00"}, {"measurement": "CGI-SI Mean Difference between TC-5214 and Placebo", "setting": "[2]", "value": 0.92}, {"measurement": "CGI-SI Adjusted Mean change", "setting": "[3]", "value": "−0.07"}, {"measurement": "CGI-SI Mean Difference between TC-5214 and Placebo", "setting": "[3]", "value": 0.05}]}
